Molecular target: T1, Bifunctional epoxide hydrolase 2 (Homo sapiens, UniProt P34913)
T1 sequence (P34913 whole entry): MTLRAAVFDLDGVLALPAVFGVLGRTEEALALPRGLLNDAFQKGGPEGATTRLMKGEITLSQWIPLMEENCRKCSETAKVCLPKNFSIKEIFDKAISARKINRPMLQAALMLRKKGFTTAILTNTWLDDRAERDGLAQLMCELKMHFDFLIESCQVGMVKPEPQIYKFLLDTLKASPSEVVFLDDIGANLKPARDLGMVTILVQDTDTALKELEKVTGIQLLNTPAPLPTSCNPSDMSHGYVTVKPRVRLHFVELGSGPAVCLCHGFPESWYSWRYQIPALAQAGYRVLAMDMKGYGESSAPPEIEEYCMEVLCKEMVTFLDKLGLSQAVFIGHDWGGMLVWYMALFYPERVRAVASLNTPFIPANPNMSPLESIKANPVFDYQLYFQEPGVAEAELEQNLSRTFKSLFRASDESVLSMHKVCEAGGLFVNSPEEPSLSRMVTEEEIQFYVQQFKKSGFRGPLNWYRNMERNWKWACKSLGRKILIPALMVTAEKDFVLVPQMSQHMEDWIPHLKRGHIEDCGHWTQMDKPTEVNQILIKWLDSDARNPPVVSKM
Experiment: Inhibition of soluble epoxide hydrolase by fluorescence assay

Compound	IC50 [nM]
O=C(Nc1ccc(C(F)(F)F)cc1)Nc1cccc(OCCCN2CCOCC2)c1	1.2
O=C(Nc1ccc(OC(F)(F)F)cc1)Nc1cccc(OCCCN2CCOCC2)c1	8.2
O=C(Cc1ccc(C(F)(F)F)cc1)Nc1cccc(OCCCN2CCOCC2)c1	55
O=C(Nc1cccc(OCCCN2CCOCC2)c1)c1ccc(C(F)(F)F)cc1	93
O=C(CC12CC3CC(CC(C3)C1)C2)C(=O)Nc1ccc(OCc2ccccc2)cc1	1110
O=C(CCC12CC3CC(CC(C3)C1)C2)C(=O)NCCc1ccc(OCc2ccccc2)cc1	685
O=C(NCCc1ccc(OCc2ccccc2)cc1)NCCC12CC3CC(CC(C3)C1)C2	15
O=C(NCCc1ccc(OCc2ccccc2)cc1)C(O)CC12CC3CC(CC(C3)C1)C2 (centres undefined)	185
O=C(NCCc1ccc(OCc2ccccc2)cc1)C(O)CCC12CC3CC(CC(C3)C1)C2 (centres undefined)	11
O=C(Nc1ccc(OCc2ccccc2)cc1)C(O)C12CC3CC(CC(C3)C1)C2 (centres undefined)	310
O=C(Nc1ccc(OCc2ccccc2)cc1)C(O)CC12CC3CC(CC(C3)C1)C2 (centres undefined)	270
O=C(CC12CC3CC(CC(C3)C1)C2)C(=O)NCCc1ccc(OCc2ccccc2)cc1	1540
O=C(Nc1ccc(OCc2ccccc2)cc1)C(=O)C12CC3CC(CC(C3)C1)C2	210

Continued, values first:

IC50 [nM]	Compound
28	O=C(CC1CCCCC1)Nc1cccc(OCCCN2CCOCC2)c1
88	O=C(Nc1cccc(OCCCN2CCOCC2)c1)C12CC3CC(CC(C3)C1)C2
2.5	O=C(CC12CC3CC(CC(C3)C1)C2)Nc1cccc(OCCCN2CCOCC2)c1
390	O=C(Nc1cccc(OCCCN2CCOCC2)c1)C1CCCCC1
0.8	O=C(Nc1cccc(OCCCN2CCOCC2)c1)NC12CC3CC(CC(C3)C1)C2
3.9	O=C(Nc1cccc(OCCCN2CCOCC2)c1)NC1CCCCC1
22	S=C(Nc1cccc(OCCCN2CCOCC2)c1)NC12CC3CC(CC(C3)C1)C2
530	O=C(Nc1cccc(OCCCN2CCOCC2)c1)C(O)CCC12CC3CC(CC(C3)C1)C2 (centres undefined)
> 2000	O=C(Nc1cccc(OCCCN2CCOCC2)c1)C(=O)C12CC3CC(CC(C3)C1)C2
48	O=C(CCC12CC3CC(CC(C3)C1)C2)C(=O)Nc1cccc(OCCCN2CCOCC2)c1
3600	O=S(=O)(Nc1cccc(OCCCN2CCOCC2)c1)NC12CC3CC(CC(C3)C1)C2
> 2000	O=C(Nc1cccc(OCCCN2CCOCC2)c1)C(O)C12CC3CC(CC(C3)C1)C2 (centres undefined)
23	O=C(Nc1cccc(OCCCN2CCOCC2)c1)C(O)CC12CC3CC(CC(C3)C1)C2 (centres undefined)
15000	O=S(=O)(Nc1cccc(OCCCN2CCOCC2)c1)c1ccc(C(F)(F)F)cc1
110	O=C(CNC12CC3CC(CC(C3)C1)C2)Nc1cccc(OCCCN2CCOCC2)c1
49	O=C(CC12CC3CC(CC(C3)C1)C2)C(=O)Nc1cccc(OCCCN2CCOCC2)c1
